Measurements published in patent US20240099989A1, “AGENT FOR PREVENTING OR IMPROVING PERIPHERAL NEUROPATHY” (KINKI UNIVERSITY, priority 2021, published 2024).
Where two headings read alike, the source gives them in different places.

How the values were obtained:
[1] = tested on: Peripheral Neuropathy in a Mouse Caused by Paclitaxel; format: in vivo, Balb/c mice; conditions: 6 mg/kg paclitaxel + 100 mg/kg orally daily from Day 6 (therapy); from Day 12 onwards
Description: (§1) Six to seven-week-old female Balb/c mice were used for the tests. All the mice were acclimated for seven days after arrival. Then, the mice were grouped into the following four groups: a control group, a group receiving paclitaxel, a group receiving xylitol, and a group receiving paclitaxel and xylitol (a group receiving paclitaxel+xylitol). Each group consisted of five mice.
(§2) On Day 8 of acclimation, the mice in the group receiving paclitaxel and the group receiving paclitaxel+xylitol were intraperitoneally administered with paclitaxel at a dose of 6 mg/kg. This day was designated as Day 0 of administration. Thereafter, these mice were intraperitoneally administered with paclitaxel at a daily dose of 6 mg/kg on Day 7 and Day 14.
The mice in the group receiving xylitol and the group receiving paclitaxel+xylitol were orally administered with xylitol at a dose of 5 mg/kg daily from Day 0.
The mice in the four groups described in (4) of the present example (Example 1) were placed in a cage, and the avoidance response frequency (score) was measured by pressing a filament with a bending force of 0.16 g against the back of the hind paw.
as §1, with “tests as with Example 1.” for “tests.”, “mice. […]” for “mice.”
For the mice in the four groups described in (6) of the present example (Example 2), the avoidance response frequency (score) was measured by pressing a filament with a bending force of 0.16 g against the back of the hind paw. […]
The mice in the four groups described in (4) of the present example (Example 3) were placed in a cage, and the avoidance response frequency (score) was measured by pressing a filament with a bending force of 0.16 g against the back of the hind paw. […]

[2] = tested on: Peripheral Neuropathy in a Mouse Caused by Bortezomib; format: in vivo, Balb/c mice
Description: as §1, with “bortezomib,” for “paclitaxel,”, “bortezomib” for “paclitaxel”, “bortezomib+xylitol).” for “paclitaxel+xylitol).”
as §2, with “bortezomib” for “paclitaxel”, “bortezomib+xylitol” for “paclitaxel+xylitol”, “1” for “6”
The mice in the group receiving xylitol and the group receiving bortezomib+xylitol were orally administered with xylitol at a dose of 5 mg/kg daily from Day 0.
(§3) A cold plate test was performed to examine the effect of xylitol on paresthesia that is caused by a low temperature stimulus. The mice in the four groups described in (10) of the present example (Example 1) were placed on a cold plate set at 10° C., and withdrawal response time (latent time) was measured. It is presumed that a shorter latent time reflects a greater degree of shunning the low temperature stimulus by the cold plate.
as §1, with “tests as with Example 1.” for “tests.”, “bortezomib,” for “paclitaxel,”, “bortezomib” for “paclitaxel”, “bortezomib+xylitol).” for “paclitaxel+xylitol).”
On Day 8 of acclimation, the mice in the group receiving bortezomib and the group receiving bortezomib+xylitol were intraperitoneally administered with bortezomib at a dose of 1 mg/kg. This day was designated as the first day of the administration (Day 0). Thereafter, these mice were intraperitoneally administered with bortezomib at the same dose on Day 7 and Day 14 for a total of 3 doses.
The mice in the group receiving 100 mg/kg xylitol were orally administered with xylitol at a dose of 100 mg/kg daily from Day 0. The mice in the group receiving bortezomib+100 mg/kg xylitol were orally administered with xylitol at a dose of 100 mg/kg daily from Day 6 of administration.
as §3, with “A” for “A cold plate”, “performed on the mice in the four groups described in (12) of the present example (Example 2)” for “performed”, “respective” for “the four”, “groups” for “groups described in (10) of the present example (Example 1)”
as §1, with “tests as with Example 1.” for “tests.”, “bortezomib,” for “paclitaxel,”, “D-threitol,” for “xylitol,”, “bortezomib” for “paclitaxel”, “D-threitol” for “xylitol”, “bortezomib+D-threitol).” for “paclitaxel+xylitol).”
as §2, with “bortezomib” for “paclitaxel”, “bortezomib+D-threitol” for “paclitaxel+xylitol”, “1” for “6”
The mice in the group receiving D-threitol and the group receiving bortezomib+D-threitol were orally administered with D-threitol at a dose of 5 mg/kg daily from Day 0.
A cold plate test was performed to examine the effect of D-threitol on paresthesia that is caused by a low temperature stimulus. […]

[3] = 1 mg/kg bortezomib + 5 mg/kg test substance orally daily from Day 0 (prevention)
[4] = 1 mg/kg bortezomib + 100 mg/kg orally daily from Day 6, on Day 12, vs group receiving 1 mg/kg bortezomib

SMILES	avoidance response score [1]	withdrawal response time (latent time) [2, 3]	withdrawal response time (latent time) [2, 4]
OC[C@@H](O)[C@H](O)CO [D-threitol]	maintained a score clearly lower than that of the group receiving paclitaxel	approximately similar to that of the control group	significantly longer withdrawal response time
OC[C@H](O)[C@H](O)[C@H](O)[C@@H](O)CO [L-talitol]	maintained a score clearly lower than that of the group receiving paclitaxel	approximately similar to that of the control group	significantly longer withdrawal response time
OC[C@@H](O)[C@H](O)[C@@H](O)CO [xylitol]	maintained a score clearly lower than that of the group receiving paclitaxel	approximately similar to that of the control group	significantly longer withdrawal response time
